# Source: patent US20020150968A1, “Glycoconjugate and sugar nucleotide synthesis using solid supports” (priority 2001, published 2002)
# Where two headings read alike, the source gives them in different places.
# Columns and labels:
# [1] = system: Sucrose synthase II; settings: cited from earlier work
# [2] = target: T1, CMP-NeuNAc synthetase (Escherichia coli O18:K1:H7, UniProt P13266); settings: enzyme purified from E. coli K1; read-out: apparent Km; cited from earlier work
# T1 construct: host or cells: E. coli K1
# T1 sequence (P13266 whole entry): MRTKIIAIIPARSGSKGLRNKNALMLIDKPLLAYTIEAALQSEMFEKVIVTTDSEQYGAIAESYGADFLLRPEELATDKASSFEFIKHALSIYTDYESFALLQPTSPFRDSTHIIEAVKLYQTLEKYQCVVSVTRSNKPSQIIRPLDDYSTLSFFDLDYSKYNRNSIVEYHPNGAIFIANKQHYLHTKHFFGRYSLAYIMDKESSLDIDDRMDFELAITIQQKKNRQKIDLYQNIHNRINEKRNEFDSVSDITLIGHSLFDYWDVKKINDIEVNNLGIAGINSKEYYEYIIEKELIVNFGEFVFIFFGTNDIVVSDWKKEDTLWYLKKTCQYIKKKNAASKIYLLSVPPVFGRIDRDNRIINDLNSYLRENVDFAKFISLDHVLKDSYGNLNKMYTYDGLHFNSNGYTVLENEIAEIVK
# [3] = system: UDP-GalNAc pyrophosphorylase; settings: substrate of UDP-GalNAc pyrophosphorylase; cited from earlier work
# [4] = target: spHAS (Streptococcus pyogenes, UniProt P0C0H0); settings: cited from earlier work
# Sequence of spHAS (P0C0H0 whole entry): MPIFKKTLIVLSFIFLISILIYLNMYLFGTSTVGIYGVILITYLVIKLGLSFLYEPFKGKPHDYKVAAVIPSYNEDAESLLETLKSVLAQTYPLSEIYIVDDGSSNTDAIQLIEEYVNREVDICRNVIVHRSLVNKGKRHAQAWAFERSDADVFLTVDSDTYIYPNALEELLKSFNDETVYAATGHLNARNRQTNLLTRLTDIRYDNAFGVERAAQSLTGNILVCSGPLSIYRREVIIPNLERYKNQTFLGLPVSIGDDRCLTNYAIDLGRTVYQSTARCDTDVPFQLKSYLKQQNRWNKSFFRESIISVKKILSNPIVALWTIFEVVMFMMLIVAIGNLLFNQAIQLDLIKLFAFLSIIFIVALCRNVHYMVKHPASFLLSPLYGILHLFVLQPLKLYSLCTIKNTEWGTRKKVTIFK
# [5] = more active than morphine; cited from earlier work
# [6] = target: GalU (Escherichia coli, UniProt P0AEP3); test: Enzymatic activity assay for GalU (two-step, UDP-glucose dehydrogenase coupled); assay type: biochemical, E. coli
# Sequence of GalU (P0AEP3 whole entry): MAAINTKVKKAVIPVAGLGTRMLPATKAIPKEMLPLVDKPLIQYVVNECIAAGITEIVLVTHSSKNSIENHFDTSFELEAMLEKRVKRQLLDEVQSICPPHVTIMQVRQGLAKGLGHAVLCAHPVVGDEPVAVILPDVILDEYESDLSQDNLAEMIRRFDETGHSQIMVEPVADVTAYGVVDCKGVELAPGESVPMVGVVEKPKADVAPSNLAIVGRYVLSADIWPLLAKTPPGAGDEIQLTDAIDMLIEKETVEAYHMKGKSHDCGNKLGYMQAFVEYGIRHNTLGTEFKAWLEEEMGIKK
# Protocol: A two-step assay was carried out to detect the GalU activity. In the first step, GalU catalyzed reactions were performed at room temperature (24° C.) for 15 min in a final volume of 250 μl containing 1.6 mM Glc-1-P, 2.8 mM UTP, 10 mM MgCl2 and 100 μl enzyme solution. A blank was performed with water replacing Glc-1-P. The reaction was stopped by adding cold NaCl solution (0.5 ml, 0.15 M) and immediately transferring the tube to a boiling water bath for 5 min to terminate the reaction. The contents of the tubes were cooled to room temperature and vortexed vigorously to break up the coagulum. After centrifuge at 1400×g for 15 min, the clear supernatant (0.2 ml) was subjected to the UDP-glucose assay in a cuvette with a total volume of 1 ml containing 0.03 M Tris-acetate buffer, pH 8.7, 1.36 mM NAD, 0.2 ml sample (supernatant from the previous procedure) and 3.2 mU UDP-glucose dehydrogenase. The OD change at 340 nm was monitored by a UV spectrophotometer (HP 8453 Spectrophotometer, Hewlett-Packard Corn.).
# [7] = system: GalT; test: Enzymatic activity assay for GalT (two-step, UDP-glucose dehydrogenase coupled); assay type: biochemical, E. coli
# Protocol: This was a two-step assay. In the first step, GalT catalyzed reactions were performed at room temperature (24° C.) for 15 min in a final volume of 250 μl HEPES buffer (100 mM, pH 7.4) containing 1.6 mM Gal-1-P, 2.8 mM UDP-glucose, and 100 μl of enzyme solution. A blank was performed with water replacing Gal-1-P. The reaction was stopped by adding cold NaCl solution (0.5 ml, 0.15 M) and immediately transferring the tube to a boiling water bath for 5 min to terminate the reaction. The contents of the tubes were cooled to room temperature and vortexed vigorously to break up the coagulum. After centrifugation at 1400×g for 15 min, the clear supernatant (0.2 ml) was subjected to the UDP-glucose assay in a cuvette with a total volume of 1 ml containing 0.03 M Tris-acetate buffer, pH 8.7, 1.36 mM NAD, 0.2 ml sample (supernatant from the previous procedure) and 3.2 mU UDP-glucose dehydrogenase. The OD change at 340 nm was monitored by a UV spectrophotometer (HP 8453 Spectrophotometer, Hewlett-Packard Corn.).
# [8] = 25 ml lysate per 1 L cell culture
# [9] = purified His-tagged enzyme, 1 U = 1 μmole product per minute at 24° C.
molecule,measurement,setting,value
"Nc1ncnc2c1ncn2[C@@H]1O[C@H](COP(=O)(O)OP(=O)(O)OP(=O)(O)O)[C@@H](O)[C@H]1O [ATP, adenosine 5′-triphosphate]",effect on enzyme activity,"[1]; both directions, in the presence of uridine substrate (UDP-Glc or UDP)",strong inhibition
"Nc1ccn([C@@H]2O[C@H](COP(=O)(O)OP(=O)(O)OP(=O)(O)O)[C@@H](O)[C@H]2O)c(=O)n1 [CTP, Cytosine 5′-triphosphate]",Km,[2],310 µM
"CC(=O)N[C@H]1C(OP(=O)(O)O)O[C@H](CO)[C@H](O)[C@@H]1O (stereo partly shown) [GalNAc-1-P, N-acetylgalactosamine-1-phosphate]",Km,[3],290 µM
CC(=O)NC1C(OP(=O)(O)O)OC(CO)C(O)C1O (stereo not shown) [GlcNAc-1-P],Km,[3],1100 µM
[Mg+2] [Mg^2+],effect on enzyme activity,[1]; sucrose-cleavage direction,little effect
[Mn+2] [Mn^2+],effect on enzyme activity,[1]; sucrose-cleavage direction,strongly inhibited
"O=C(O)[C@H]1O[C@H](OP(=O)(O)OP(=O)(O)OC[C@H]2O[C@@H](n3ccc(=O)[nH]c3=O)[C@H](O)[C@@H]2O)[C@H](O)[C@@H](O)[C@@H]1O [UDP-GlcA, uridine 5′-diphosphoglucuronic acid]",Km,[4],40 ± 4 µM
"CC(=O)N[C@H]1[C@@H](OP(=O)(O)OP(=O)(O)OC[C@H]2O[C@@H](n3ccc(=O)[nH]c3=O)[C@H](O)[C@@H]2O)O[C@H](CO)[C@@H](O)[C@@H]1O [UDP-GlcNAc, uridine 5′-diphospho-N-acetylglucosamine]",Km,[4],149 ± 3 µM
CN1CC[C@]23c4c5ccc(O)c4O[C@H]2[C@@H](O[C@@H]2O[C@H](C(=O)O)[C@@H](O)[C@H](O)[C@H]2O)C=C[C@H]3[C@H]1C5 [morphine-6-O-glucuronide],activity relative to morphine,[5],50 times
"GalU: glucose-1-phosphate uridylyltransferase, E. coli, N-terminal six-histidine tag (protein, UniProt P0AEP3 2-302, looked up, N-terminal His6 tag, glucose-1-phosphate uridylyltransferase, E. coli, N-terminal six-histidine tag) UTP--glucose-1-phosphate …: AAINTKVKKAVIPVAGLGTRMLPATKAIPKEMLPLVDKPLIQYVVNECIAAGITEIVLVTHSSKNSIENHFDTSFELEAMLEKRVKRQLLDEVQSICPPHVTIMQVRQGLAKGLGHAVLCAHPVVGDEPVAVILPDVILDEYESDLSQDNLAEMIRRFDETGHSQIMVEPVADVTAYGVVDCKGVELAPGESVPMVGVVEKPKADVAPSNLAIVGRYVLSADIWPLLAKTPPGAGDEIQLTDAIDMLIEKETVEAYHMKGKSHDCGNKLGYMQAFVEYGIRHNTLGTEFKAWLEEEMGIKK",activity of enzyme in the cell lysate,[6]; [8],100 U/L
same,specific activity,[6]; [9],10 U/mg
"GalT: galactose-1-phosphate uridylyltransferase, E. coli, N-terminal six-histidine tag (protein, UniProt P09148 1-348, looked up, N-terminal His6 tag, galactose-1-phosphate uridylyltransferase, E. coli, N-terminal six-histidine tag) Galactose-1-phosphate …: MTQFNPVDHPHRRYNPLTGQWILVSPHRAKRPWQGAQETPAKQVLPAHDPDCFLCAGNVRVTGDKNPDYTGTYVFTNDFAALMSDTPDAPESHDPLMRCQSARGTSRVICFSPDHSKTLPELSVAALTEIVKTWQEQTAELGKTYPWVQVFENKGAAMGCSNPHPHGQIWANSFLPNEAEREDRLQKEYFAEQKSPMLVDYVQRELADGSRTVVETEHWLAVVPYWAAWPFETLLLPKAHVLRITDLTDAQRSDLALALKKLTSRYDNLFQCSFPYSMGWHGAPFNGEENQHWQLHAHFYPPLLRSATVRKFMVGYEMLAETQRDLTAEQAAERLRAVSDIHFRESGV",activity of enzyme in the cell lysate,[7]; [8],100 U/L
same,specific activity,[7]; [9],5 U/mg
